Measured values published in the NIST ThermoML archive (doi:10.1016/j.fluid.2006.10.012).
± gives the expanded uncertainty stated by the source.

Experiment: osmotic coefficient (dimensionless); mn = molality of the nth substance listed, in mol/kg
Settings: Liquid, isopiestic method

NCC(=O)O [2-aminoacetic acid] + O
Settings | osmotic coefficient
288.15 K, m1 = 0.2174 | 0.9554 ± 0.0022
288.15 K, m1 = 0.2178 | 0.9554 ± 0.0022
288.15 K, m1 = 0.3075 | 0.946 ± 0.0027
288.15 K, m1 = 0.3078 | 0.946 ± 0.0027
288.15 K, m1 = 0.5175 | 0.9341 ± 0.0033
288.15 K, m1 = 0.5178 | 0.934 ± 0.0033
288.15 K, m1 = 0.6241 | 0.9302 ± 0.0035
288.15 K, m1 = 0.6251 | 0.9302 ± 0.0035
288.15 K, m1 = 0.8647 | 0.9219 ± 0.0039
288.15 K, m1 = 0.8654 | 0.9219 ± 0.0039
288.15 K, m1 = 1.193 | 0.9166 ± 0.0042
288.15 K, m1 = 1.194 | 0.9166 ± 0.0042
293.15 K, m1 = 0.2074 | 0.9705 ± 0.0015
293.15 K, m1 = 0.2076 | 0.9705 ± 0.0015
293.15 K, m1 = 0.3572 | 0.9556 ± 0.0022
293.15 K, m1 = 0.3577 | 0.9555 ± 0.0022
293.15 K, m1 = 0.5277 | 0.9428 ± 0.0029
293.15 K, m1 = 0.5284 | 0.9428 ± 0.0029
293.15 K, m1 = 0.8498 | 0.9282 ± 0.0036
293.15 K, m1 = 0.8508 | 0.9282 ± 0.0036
293.15 K, m1 = 1.027 | 0.924 ± 0.0038
293.15 K, m1 = 1.028 | 0.924 ± 0.0038
293.15 K, m1 = 1.298 | 0.9202 ± 0.004
293.15 K, m1 = 1.299 | 0.9202 ± 0.004
298.15 K, m1 = 0.2274 | 0.9815 ± 0.0009
298.15 K, m1 = 0.2276 | 0.981 ± 0.001
298.15 K, m1 = 0.3213 | 0.9767 ± 0.0012
298.15 K, m1 = 0.3214 | 0.9764 ± 0.0012
298.15 K, m1 = 0.5417 | 0.9583 ± 0.0021
298.15 K, m1 = 0.7869 | 0.9461 ± 0.0027
298.15 K, m1 = 0.7878 | 0.945 ± 0.0028
298.15 K, m1 = 0.8048 | 0.9442 ± 0.0028
298.15 K, m1 = 0.8059 | 0.9432 ± 0.0028
298.15 K, m1 = 1.139 | 0.9297 ± 0.0035
298.15 K, m1 = 1.14 | 0.9295 ± 0.0035
303.15 K, m1 = 0.203 | 0.9873 ± 0.0006
303.15 K, m1 = 0.2037 | 0.9872 ± 0.0006
303.15 K, m1 = 0.3379 | 0.9781 ± 0.0011
303.15 K, m1 = 0.3388 | 0.9781 ± 0.0011
303.15 K, m1 = 0.5346 | 0.966 ± 0.0017
303.15 K, m1 = 0.535 | 0.9659 ± 0.0017
303.15 K, m1 = 0.7489 | 0.9539 ± 0.0023
303.15 K, m1 = 0.7501 | 0.9538 ± 0.0023
303.15 K, m1 = 0.854 | 0.9483 ± 0.0026
303.15 K, m1 = 0.8547 | 0.9483 ± 0.0026
303.15 K, m1 = 1.044 | 0.9384 ± 0.0031
303.15 K, m1 = 1.045 | 0.9384 ± 0.0031

CC(N)C(=O)O (stereo not drawn) [DL-2-aminopropanoic acid] + O
Settings | osmotic coefficient
288.15 K, m1 = 0.2159 | 0.9497 ± 0.0026
288.15 K, m1 = 0.2163 | 0.9496 ± 0.0026
288.15 K, m1 = 0.3062 | 0.944 ± 0.0027
288.15 K, m1 = 0.3066 | 0.944 ± 0.0027
288.15 K, m1 = 0.5085 | 0.9513 ± 0.0026
288.15 K, m1 = 0.5093 | 0.9514 ± 0.0026
288.15 K, m1 = 0.6031 | 0.9603 ± 0.0024
288.15 K, m1 = 0.6037 | 0.9603 ± 0.0024
288.15 K, m1 = 0.8076 | 0.9837 ± 0.0021
288.15 K, m1 = 0.8082 | 0.9838 ± 0.0021
288.15 K, m1 = 1.098 | 1.01
293.15 K, m1 = 0.2061 | 0.9725 ± 0.0022
293.15 K, m1 = 0.2068 | 0.9724 ± 0.0022
293.15 K, m1 = 0.3536 | 0.9656 ± 0.0023
293.15 K, m1 = 0.354 | 0.9656 ± 0.0023
293.15 K, m1 = 0.5134 | 0.9677 ± 0.0022
293.15 K, m1 = 0.5145 | 0.9677 ± 0.0022
293.15 K, m1 = 0.8192 | 0.9905 ± 0.002
293.15 K, m1 = 0.8199 | 0.9905 ± 0.002
293.15 K, m1 = 0.9719 | 1.007 ± 0.002
293.15 K, m1 = 0.9725 | 1.007 ± 0.002
293.15 K, m1 = 1.185 | 1.029 ± 0.0023
293.15 K, m1 = 1.186 | 1.029 ± 0.0023
298.15 K, m1 = 0.2238 | 0.9972 ± 0.002
298.15 K, m1 = 0.2243 | 0.9954 ± 0.002
298.15 K, m1 = 0.3134 | 0.9976 ± 0.002
298.15 K, m1 = 0.3135 | 0.9972 ± 0.002
298.15 K, m1 = 0.52 | 0.9983 ± 0.002
298.15 K, m1 = 0.5203 | 0.9977 ± 0.002
298.15 K, m1 = 0.5759 | 0.9986 ± 0.002
298.15 K, m1 = 0.5762 | 0.9982 ± 0.002
298.15 K, m1 = 0.7604 | 0.9998 ± 0.002
298.15 K, m1 = 0.7609 | 0.9991 ± 0.002
298.15 K, m1 = 1.056 | 1
303.15 K, m1 = 0.207 | 1.004 ± 0.002
303.15 K, m1 = 0.2076 | 1.004 ± 0.002
303.15 K, m1 = 0.3362 | 1.004 ± 0.002
303.15 K, m1 = 0.3364 | 1.004 ± 0.002
303.15 K, m1 = 0.5119 | 1.004 ± 0.002
303.15 K, m1 = 0.5129 | 1.004 ± 0.002
303.15 K, m1 = 0.7159 | 1.006 ± 0.002
303.15 K, m1 = 0.7166 | 1.006 ± 0.002
303.15 K, m1 = 0.8218 | 1.01 ± 0.002
303.15 K, m1 = 0.8221 | 1.01 ± 0.002
303.15 K, m1 = 1.038 | 1.02

CCC(N)C(=O)O (stereo not drawn) [(.+-.)-α-aminobutyric acid] + O
Settings | osmotic coefficient
288.15 K, m1 = 0.2191 | 0.9642 ± 0.0018
288.15 K, m1 = 0.2194 | 0.9642 ± 0.0018
288.15 K, m1 = 0.3053 | 0.9569 ± 0.0022
288.15 K, m1 = 0.3055 | 0.9569 ± 0.0022
288.15 K, m1 = 0.5076 | 0.9529 ± 0.0024
288.15 K, m1 = 0.5082 | 0.953 ± 0.0024
288.15 K, m1 = 0.595 | 0.9567 ± 0.0022
288.15 K, m1 = 0.596 | 0.9567 ± 0.0022
288.15 K, m1 = 0.7815 | 0.9748 ± 0.0013
288.15 K, m1 = 0.7821 | 0.9749 ± 0.0013
288.15 K, m1 = 1.057 | 1.025 ± 0.0012
288.15 K, m1 = 1.059 | 1.025 ± 0.0013
293.15 K, m1 = 0.2031 | 0.9894 ± 0.0005
293.15 K, m1 = 0.2034 | 0.9894 ± 0.0005
293.15 K, m1 = 0.3484 | 0.9811 ± 0.0009
293.15 K, m1 = 0.3492 | 0.9811 ± 0.0009
293.15 K, m1 = 0.508 | 0.9744 ± 0.0013
293.15 K, m1 = 0.5086 | 0.9744 ± 0.0013
293.15 K, m1 = 0.8066 | 0.9819 ± 0.0009
293.15 K, m1 = 0.8078 | 0.982 ± 0.0009
293.15 K, m1 = 0.9443 | 1.0001 ± 0.0001
293.15 K, m1 = 0.9453 | 1.0003 ± 0.0001
293.15 K, m1 = 1.139 | 1.048 ± 0.0024
293.15 K, m1 = 1.14 | 1.049 ± 0.0024
298.15 K, m1 = 0.2217 | 1.0067 ± 0.0003
298.15 K, m1 = 0.2219 | 1.0058 ± 0.0003
298.15 K, m1 = 0.3106 | 1.0103 ± 0.0005
298.15 K, m1 = 0.3109 | 1.0093 ± 0.0005
298.15 K, m1 = 0.5105 | 1.0168 ± 0.0008
298.15 K, m1 = 0.5108 | 1.0163 ± 0.0008
298.15 K, m1 = 0.5636 | 1.0164 ± 0.0008
298.15 K, m1 = 0.5637 | 1.0162 ± 0.0008
298.15 K, m1 = 0.7428 | 1.023 ± 0.0012
298.15 K, m1 = 0.7434 | 1.023 ± 0.0011
298.15 K, m1 = 1.022 | 1.036 ± 0.0018
298.15 K, m1 = 1.023 | 1.036 ± 0.0018
303.15 K, m1 = 0.2054 | 1.0072 ± 0.0004
303.15 K, m1 = 0.206 | 1.0073 ± 0.0004
303.15 K, m1 = 0.3334 | 1.0133 ± 0.0007
303.15 K, m1 = 0.3335 | 1.0133 ± 0.0007
303.15 K, m1 = 0.5083 | 1.0187 ± 0.0009
303.15 K, m1 = 0.5087 | 1.0187 ± 0.0009
303.15 K, m1 = 0.7146 | 1.025 ± 0.0012
303.15 K, m1 = 0.7157 | 1.025 ± 0.0012
303.15 K, m1 = 0.8091 | 1.029 ± 0.0015
303.15 K, m1 = 0.8092 | 1.029 ± 0.0015
303.15 K, m1 = 1.03 | 1.046 ± 0.0023
303.15 K, m1 = 1.031 | 1.046 ± 0.0023
